pEC50: −log10 of the molar value.

For one assay, the system named is HT-1080 cells. Nature of the assay: HT-1080 cell viability assay (ferroptosis induced by RSL3, Cell Titer-Glo). It is filed as cell-based. As to conditions: Homo sapiens, HT-1080, 20 h, ferroptosis inducer RSL3, 20 hours, ferroptosis inhibitory activity, Table 2. In a few lines: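 Cells seeded overnight, then co-treated with RSL3 and compound (3-fold, 10-point dilution, top 1.1 μM) for 20 hours. Viability by CellTiter-Glo luminescence, normalized to untreated controls; EC50 from sigmoidal non-linear regression.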
On to `CC1CC(Nc2ccc(C(C)(C)C)cc2)CCC1N` (centres unmarked) [Compound 250A, N1-(4-(tert-butyl)phenyl)-3-methylcyclohexane-1,4-diamine], for which the pEC50 was 7.00 to 10.00.

`NC1CCC(Nc2ccc(C3CCC(F)(F)CC3)cc2)CC1` (centres unmarked) [Compound 251A, N1-(4-(4.4-difluorocyclohexyl)phenyl)cyclohexane-1,4-diamine] showed a pEC50 of 7.00 to 10.00.

The molecule `CCCCCCc1cc(NC2CCC(N)CC2)ccc1C(C)(C)C` (centres unmarked) [Compound 253A, N1-(4-(tert-butyl)-3-hexylphenyl)cyclohexane-1,4-diamine] gave a pEC50 of 7.00 to 10.00.

As for `COCCCCOc1cc(NC2CCC(N)CC2)ccc1C(C)(C)C` (centres unmarked) [Compound 254, N1-(4-(tert-butyl)-3-(4-methoxybutoxy)phenyl)cyclohexane-1,4-diamine], the pEC50 is 7.00 to 10.00.

The molecule `CC(C)(C)c1ccc(NC2CCC(O)C(O)C2)cc1` (centres unmarked) [Compound 255, 4-((4-(tert-butyl)phenyl)amino)cyclohexane-1,2-diol] showed a pEC50 of 5.00 to 6.00.

`CCOCCN(CCCCOC)CCNc1ccc(C(C)(C)C)cc1` [Compound 256, N1-(4-(tert-butyl)phenyl)-N2-(2-ethoxyethyl)-N2-(4-methoxybutyl) ethane-1,2-diamine] showed a pEC50 of 5.00 to 6.00.

Take `CN(C)CCNC1CCC(Nc2ccc(C(C)(C)C)cc2)CC1` (centres unmarked) [Compound 257]: the negative-log EC50 (pEC50) is 7.00 to 10.00.

Molecule `CC(C)(C)c1ccc(NC2CCC(C[N+](C)(C)C)CC2)cc1` (centres unmarked) [Compound 258, 1-(4-((4-(tert-butyl)phenyl)amino)cyclohexyl)-N,N,N-trimethylmethanaminium] showed a pEC50 of 5.00 to 6.00.

Take `CC(C)(C)c1ccc(NC2CCC(NS(N)(=O)=O)CC2)cc1` (centres unmarked) [Compound 259A]: the negative logarithm of the EC50 (pEC50) was 6.00 to 7.00.

`CC(C)(C)c1ccc(NC[C@H]2CC[C@H](N)CC2)cc1` [Compound 260, N-(((1r,4r)-4-aminocyclohexyl)methyl)-4-(tert-butyl)aniline] gave a pEC50 of 7.00 to 10.00.

`CC1(C)CCC(c2ccc(NC3CCS(=O)(=O)CC3)cc2)CC1` [Compound 261, 4-((4-(4,4-dimethylcyclohexyl)phenyl)amino)tetrahydro-2H-thiopyran 1,1-dioxide] had a pEC50 of 6.00 to 7.00.

Consider `CCOCCCc1ccc(NC2CCC(N)CC2)cc1` (centres unmarked) [Compound 262, (1s,4s)-N1-(4-(3-ethoxypropyl)phenyl)cyclohexane-1,4-diamine], for which the pEC50 was 6.00 to 7.00.

In the case of `CNCC1CCC(Nc2ccc(C(C)(C)C)cc2)C1` (centres unmarked) [Compound 263, 4-(tert-butyl)-N-(3-((methylamino)methyl)cyclopentyl)aniline], the pEC50 was 6.00 to 7.00.

Take `NCCC1CCC(Nc2ccc3c(c2)CCC3)CC1` (centres unmarked) [Compound 264, N-(4-(2-aminoethyl)cyclohexyl)-2,3-dihydro-1H-inden-5-amine]: the pEC50 is 7.00 to 10.00.

In turn, `CC1(C)CCC(C)(C)c2cc(NC3CCC(N)CC3)ccc21` (centres unmarked) [Compound 265, N1-(5,5,8,8-tetramethyl-5,6,7,8-tetrahydronaphthalen-2-yl)cyclohexane-1,4-diamine] gave a pEC50 of 7.00 to 10.00.

`CC(C)(C)c1ccc(NC2CCC(NC(N)=O)CC2)cc1` (centres unmarked) [Compound 266A, 1-(4-((4-(tert-butyl)phenyl)amino)cyclohexyl)urea] had a pEC50 of 6.00 to 7.00.

Molecule `CC(C)(C)c1ccc(NC2CCC(NCCCN)CC2)cc1` (centres unmarked) [Compound 267, 1-N-(3-aminopropyl)-4-N-(4-(tert-butyl)phenyl)cyclohexane-1,4-diamine] showed a negative-log EC50 (pEC50) of 5.00 to 6.00.

`CC(C)(C)c1ccc(NC2CCC(NCCN)CC2)cc1` (centres unmarked) [Compound 268, 1-N-(2-aminoethyl)-N4-(4-(tert-butyl)phenyl)cyclohexane-1,4-diamine] showed a pEC50 of 7.00 to 10.00.

Regarding `CC1CCC(Nc2ccc(C3CCCCC3)cc2)CC1` (centres unmarked) [Compound 269, 4-cyclohexyl-N-(4-methylcyclohexyl)aniline], the pEC50 was 6.00 to 7.00.

`CC(C)(C)c1ccc(NC2CCC(N)(CN)CC2)cc1` (centres unmarked) [Compound 270, 1-(aminomethyl)-N4-(4-(tert-butyl)phenyl)cyclohexane-1,4-diamine] had a pEC50 of 6.00 to 7.00.

Consider `CCCCCCOc1cc(NC2CCC(N)CC2)ccc1C(C)(C)C` (centres unmarked) [Compound 271, N1-(4-(tert-butyl)-3-(hexyloxy)phenyl)cyclohexane-1,4-diamine], for which the pEC50 was 7.00 to 10.00.

The molecule `CCC(C)(C)c1ccc(NC2CCC(N)C2)cc1` (centres unmarked) [Compound 272, N^1-(4-(tert-pentyl)phenyl)cyclopentane-1,3-diamine] showed a pEC50 of 7.00 to 10.00.

With `CCC(C)(C)c1ccc(NC2CC(N)C2)cc1` (centres unmarked) [Compound 273, N1-(4-(tert-pentyl)phenyl)cyclobutane-1,3-diamine], the pEC50 is 7.00 to 10.00.

The molecule `CC1(C)CCC(c2ccc(NC3CCC(NC(=O)C4CNCCN4)CC3)cc2)CC1` (centres unmarked) [Compound 274, N-(4-((4-(4,4-dimethylcyclohexyl)phenyl)amino)cyclohexyl) piperazine-2-carboxamide] had a pEC50 of 7.00 to 10.00.

`CC1(C)CCC(c2ccc(NC3CCC(N)(CO)CC3)cc2)CC1` (centres unmarked) [Compound 275A] had a pEC50 of 7.00 to 10.00.

Take `CC(C)(C)c1ccc(NC2CC3(CC(N)C3)C2)cc1` (centres unmarked) [Compound 276, N2-(4-(tert-butyl)phenyl)spiro[3.3]heptane-2,6-diamine]: the pEC50 is 7.00 to 10.00.

Regarding `CC(C)(C)c1ccc(NC2CC3CC(N)CC3C2)cc1` (centres unmarked) [Compound 277, N2-(4-(tert-butyl)phenyl) octahydropentalene-2,5-diamine], the pEC50 was 7.00 to 10.00.

`CCCc1ccc(NC2CCC(C)(N)CC2)cc1` (centres unmarked) [Compound 278, 1-methyl-N4-(4-propylphenyl)cyclohexane-1,4-diamine] showed a negative-log EC50 (pEC50) of 7.00 to 10.00.

Turning to `C[C@H](O)[C@@H](N)C(=O)NC1CCC(Nc2ccc(C3CCC(C)(C)CC3)cc2)CC1` (stereo partly drawn) [Compound 279, (2R, 3S)-2-amino-N-(4-((4-(4,4-dimethylcyclohexyl)phenyl)amino)cyclohexyl)-3-hydroxybutanamide], the pEC50 was 7.00 to 10.00.

For `NC1CCC(Nc2ccc(C3CCC(C(F)(F)F)CC3)cc2)CC1` (centres unmarked) [Compound 280, N1-(4-(4-(trifluoromethyl)cyclohexyl)phenyl)cyclohexane-1,4-diamine], the negative logarithm of the EC50 (pEC50) was 7.00 to 10.00.

In turn, `CCc1c(C)cc(NC2CCC(N)CC2)cc1C` (centres unmarked) [Compound 281, N1-(4-ethyl-3,5-dimethylphenyl)cyclohexane-1,4-diamine] showed a pEC50 of 7.00 to 10.00.

In the case of `Cc1ccc(NC2CCC(CN)CC2)cc1C` (centres unmarked) [Compound 282, N-(4-(aminomethyl)cyclohexyl)-3,4-dimethylaniline], the pEC50 was 6.00 to 7.00.

`CC(C)c1ccc(NC2CCC(CN)CC2)cc1` (centres unmarked) [Compound 283, N-(4-(aminomethyl)cyclohexyl)-4-isopropylaniline]: the pEC50 was 7.00 to 10.00.

`NCC1CCC(Nc2ccc3c(c2)CCCC3)CC1` (centres unmarked) [Compound 286, N-(4-(aminomethyl)cyclohexyl)-5,6,7,8-tetrahydronaphthalen-2-amine] had a pEC50 of 7.00 to 10.00.

Take `CC(C)(C)c1ccc(NC2CCC(CCCN)CC2)cc1` (centres unmarked) [Compound 287, N-(4-(3-aminopropyl)cyclohexyl)-4-(tert-butyl)aniline]: the pEC50 was 7.00 to 10.00.

The molecule `CC(C)(C)c1ccc(NC[C@H]2CC[C@@H](N)CC2)cc1` [Compound 288, N-(((1s, 4s)-4-aminocyclohexyl)methyl)-4-(tert-butyl)aniline] had a pEC50 of 7.00 to 10.00.

For `CC(N)C1CCC(Nc2ccc(C(C)(C)C)cc2)CC1` (centres unmarked) [Compound 290, N-(4-(1-aminoethyl)cyclohexyl)-4-(tert-butyl)aniline], the pEC50 was 7.00 to 10.00.

`CCCc1ccc(NC2CCC(CN)CC2)cc1` (centres unmarked) [Compound 291, N-(4-(aminomethyl)cyclohexyl)-4-propylaniline] had a pEC50 of 7.00 to 10.00.

For `CCCc1ccc(NC2CCC(CCN)CC2)cc1` (centres unmarked) [Compound 292, N-(4-(2-aminoethyl)cyclohexyl)-4-propylaniline], the pEC50 was 7.00 to 10.00.

In turn, `CCOCCCc1ccc(N[C@H]2CC[C@H](N)CC2)cc1` [Compound 293, (1r,4r)-N1-(4-(3-ethoxypropyl)phenyl)cyclohexane-1,4-diamine] gave a pEC50 of 6.00 to 7.00.

Molecule `CCC(C)(C)c1ccc(NC2CCC(N)(CO)CC2)cc1` (centres unmarked) [Compound 296A, (1-amino-4-((4-(tert-pentyl)phenyl)amino)cyclohexyl)methanol] had a pEC50 of 7.00 to 10.00.

Molecule `CC(CN1CCCC1)Nc1ccc(C2CCC(C)(C)CC2)cc1` (centres unmarked) [Compound 297, 4-(4,4-dimethylcyclohexyl)-N-(1-(pyrrolidin-1-yl)propan-2-yl)aniline] gave a negative-log EC50 (pEC50) of 7.00 to 10.00.

Molecule `CCC(C)(C)c1ccc(NC2CCC(O)CC2)cc1` (centres unmarked) [Compound 298, 4-((4-(tert-pentyl)phenyl)amino)cyclohexan-1-ol] gave a pEC50 of 6.00 to 7.00.

In turn, `COCCCOc1cc(NC2CCC(N)CC2)ccc1C(C)(C)C` (centres unmarked) [Compound 300A, N1-(4-(tert-butyl)-3-(3-methoxypropoxy)phenyl)cyclohexane-1,4-diamine] had a pEC50 of 7.00 to 10.00.

Molecule `COCCOc1cc(NC2CCC(N)CC2)ccc1C(C)(C)C` (centres unmarked) [Compound 301A, N1-(4-(tert-butyl)-3-(2-methoxyethoxy)phenyl)cyclohexane-1,4-diamine] had a negative logarithm of the EC50 (pEC50) of 7.00 to 10.00.

The molecule `COCCCCOc1cc(NC2CCC(N)C2)ccc1C(C)(C)C` (centres unmarked) [Compound 302, N1-(4-(tert-butyl)-3-(4-methoxybutoxy)phenyl)cyclopentane-1,3-diamine] gave a pEC50 of 7.00 to 10.00.

`CC(C)(C)c1ccc(NC2CCC(CCCCN)CC2)cc1` (centres unmarked) [Compound 303, N-(4-(4-aminobutyl)cyclohexyl)-4-(tert-butyl)aniline] gave a pEC50 of 7.00 to 10.00.

The molecule `CCc1ccc(NC2CCC(N)CC2)cc1C` (centres unmarked) [Compound 304, N1-(4-ethyl-3-methylphenyl)cyclohexane-1,4-diamine] had a pEC50 of 6.00 to 7.00.

The molecule `N[C@H]1CC[C@@H](CNc2ccc3c(c2)CCC3)CC1` [Compound 307, N-(((1s,4s)-4-aminocyclohexyl)methyl)-2,3-dihydro-1H-inden-5-amine] showed a pEC50 of 7.00 to 10.00.

The assay is the same for the next values; noted with them: ferroptosis inducer RSL3, 20 hours, ferroptosis inhibitory activity, Table 2.
On to `CC1(N)CCC(Nc2ccc3c(c2)CCCC3)CC1` (centres unmarked) [Compound 285, 1-methyl-N4-(5,6,7,8-tetrahydronaphthalen-2-yl)cyclohexane-1,4-diamine], for which the pEC50 is 7.00 to 10.00.
